# Test results reported in ChEMBL document CHEMBL1201862, “PubChem BioAssay data set” (2004).
#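 Each compound was tested at five concentrations against cells in 96-well plates for 48 hours. GI50 is the concentration that inhibits growth by half.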 Active and inactive are the calls of the source. Cut-off read from the data, not from the text of the source: active = GI50 up to about 1.1 µM and inactive = higher.
# Columns and labels:
# Assay in all cases: NCI tumour cell line growth inhibition, 48 h
# 786-0 = tested on: 786-0
# A549 = tested on: A549
# HCT-116 = tested on: HCT-116
# Hs-578T = tested on: Hs-578T
# K562 = tested on: K562
# KM12 = tested on: KM12
# NCI-H522 = tested on: NCI-H522
# OVCAR-3 = tested on: OVCAR-3
# OVCAR-8 = tested on: OVCAR-8
# PC-3 = tested on: PC-3
# RXF 393 = tested on: RXF 393
# SF-268 = tested on: SF-268
# SK-MEL-5 = tested on: SK-MEL-5
# SN12C = tested on: SN12C
# SW-620 = tested on: SW-620
# LOX IMVI = tested on: LOX IMVI
# NCI-H460 = tested on: NCI-H460
# SF-539 = tested on: SF-539
# SNB-75 = tested on: SNB-75
# SR = tested on: SR
SMILES,GI50 (786-0),GI50 (A549),GI50 (HCT-116),GI50 (Hs-578T),GI50 (K562),GI50 (KM12),GI50 (NCI-H522),GI50 (OVCAR-3),GI50 (OVCAR-8),GI50 (PC-3),GI50 (RXF 393),GI50 (SF-268),GI50 (SK-MEL-5),GI50 (SN12C),GI50 (SW-620),GI50 (LOX IMVI),GI50 (NCI-H460),GI50 (SF-539),GI50 (SNB-75),GI50 (SR)
COC1OC2COC(C)(C)OC2C2OC(C)(C)OC12 (stereo unspecified),18.6 µM (inactive),85.1 µM (inactive),> 100 µM (inactive),17 µM (inactive),33.7 µM (inactive),> 100 µM (inactive),> 100 µM (inactive),> 100 µM (inactive),55.7 µM (inactive),80.5 µM (inactive),23.7 µM (inactive),> 100 µM (inactive),> 100 µM (inactive),21 µM (inactive),> 100 µM (inactive),,,,,
CCOC(=O)c1nc[nH]c1/N=N/N(C)N,84.7 µM (inactive),> 100 µM (inactive),> 100 µM (inactive),> 100 µM (inactive),> 10 µM (inactive),1.87 µM (inactive),22.4 µM (inactive),> 100 µM (inactive),> 100 µM (inactive),> 100 µM (inactive),> 100 µM (inactive),> 100 µM (inactive),> 100 µM (inactive),> 100 µM (inactive),> 100 µM (inactive),92.5 µM (inactive),25.3 µM (inactive),> 100 µM (inactive),> 100 µM (inactive),
COc1ccc(CCN2CCN(CCCc3ccccc3)CC2)cc1,> 100 µM (inactive),> 100 µM (inactive),> 100 µM (inactive),> 100 µM (inactive),38.6 µM (inactive),72.6 µM (inactive),> 100 µM (inactive),80 µM (inactive),> 100 µM (inactive),> 100 µM (inactive),,> 100 µM (inactive),23.2 µM (inactive),> 100 µM (inactive),> 100 µM (inactive),> 100 µM (inactive),84.5 µM (inactive),> 100 µM (inactive),,47.8 µM (inactive)
CCOC(=O)N1CCN(c2c(N)nc(C)nc2O)CC1,> 100 µM (inactive),> 100 µM (inactive),> 100 µM (inactive),> 100 µM (inactive),> 100 µM (inactive),> 100 µM (inactive),> 100 µM (inactive),> 100 µM (inactive),> 100 µM (inactive),> 100 µM (inactive),,> 100 µM (inactive),,> 100 µM (inactive),> 100 µM (inactive),> 100 µM (inactive),> 100 µM (inactive),> 100 µM (inactive),> 100 µM (inactive),> 100 µM (inactive)
Cc1cc(=O)[nH]c(-n2[nH]c(C)c(CCO)c2=O)n1,> 100 µM (inactive),> 100 µM (inactive),> 100 µM (inactive),> 100 µM (inactive),> 100 µM (inactive),> 100 µM (inactive),> 100 µM (inactive),> 100 µM (inactive),> 100 µM (inactive),> 100 µM (inactive),> 100 µM (inactive),> 100 µM (inactive),> 100 µM (inactive),> 100 µM (inactive),> 100 µM (inactive),> 100 µM (inactive),> 100 µM (inactive),> 100 µM (inactive),,
CCN(CCCN(CC)C(=O)Nc1c(C)cccc1C)C(=O)Nc1c(C)cccc1C,> 100 µM (inactive),> 100 µM (inactive),> 100 µM (inactive),> 100 µM (inactive),> 100 µM (inactive),> 100 µM (inactive),> 100 µM (inactive),,> 100 µM (inactive),> 100 µM (inactive),43.1 µM (inactive),> 100 µM (inactive),> 100 µM (inactive),> 100 µM (inactive),> 100 µM (inactive),> 100 µM (inactive),> 100 µM (inactive),,40.3 µM (inactive),
COc1cccc(N2C(=O)C3c4[nH]c5ccc(C)cc5c4C4CCC(C)CC4C3C2=O)c1 (stereo unspecified),26.5 µM (inactive),> 100 µM (inactive),> 100 µM (inactive),23.7 µM (inactive),30.3 µM (inactive),,,> 100 µM (inactive),> 100 µM (inactive),> 100 µM (inactive),18.3 µM (inactive),47.2 µM (inactive),> 100 µM (inactive),> 100 µM (inactive),> 100 µM (inactive),> 100 µM (inactive),> 100 µM (inactive),57.5 µM (inactive),,> 10 µM (inactive)
COc1ccccc1NC(=S)N/N=C/c1cccc(C)n1,2.9 µM (inactive),4.16 µM (inactive),3.4 µM (inactive),11.5 µM (inactive),1.27 µM (inactive),6.25 µM (inactive),0.279 µM (active),1.26 µM (inactive),4.07 µM (inactive),4.5 µM (inactive),,6.97 µM (inactive),4.17 µM (inactive),7.1 µM (inactive),3.14 µM (inactive),2.3 µM (inactive),2.49 µM (inactive),4.89 µM (inactive),5.62 µM (inactive),2.43 µM (inactive)
